We go through 35 compounds from patent publication US8163775B2, “Allosteric modulators of metabotropic glutamate receptors” (Addex Pharma SA, priority 2003, dated 2012).

For orientation: melting point means the temperature of the solid-liquid transition. For `O=C(c1ccc(F)cc1)N1CCC[C@H](c2nc(-c3ccc4ccccc4c3)no2)C1` [Example 53, (4-Fluoro-phenyl)-[(S)-3-(3-naphthalen-2-yl-[1,2,4]oxadiazol-5-yl)-piperidin-1-yl]-methanone], the melting point fell in the range of 142 to 143 °C.

`O=C(c1ccno1)N1CCC[C@H](c2nc(-c3ccc(F)cc3)no2)C1` [Example 24, {(S)-3-[3-(4-Fluoro-phenyl)-[1,2,4]oxadiazol-5-yl]-piperidin-1-yl}-isoxazol-5-yl-methanone] showed a melting point of 93 to 94 °C.

On to `O=C(c1ccccc1)N1CCCC(c2nc(-c3ccc(F)cc3)no2)C1` (centres unmarked) [Example 5, {3-[3-(4-Fluoro-phenyl)-[1,2,4]oxadiazol-5-yl]-piperidin-1-yl}-phenyl-methanone], for which the melting point lay in the range of 82 to 83 °C.

Regarding `O=C(CCc1ccc(F)cc1)N1CCC[C@H](c2nc(-c3ccc(F)cc3)no2)C1` [Example 42, 3-(4-Fluoro-phenyl)-1-{(S)-3-[3-(4-fluoro-phenyl)-1,2,4-oxadiazol-5-yl]-piperidin-1-yl}-propan-1-one], the melting point is 83 to 84 °C.

`O=C(c1ccc(F)c(Cl)c1)N1CCC[C@H](c2nc(-c3ccc(F)cc3)no2)C1` [Example 27, (3-Chloro-4-fluoro-phenyl)-{(S)-3-[3-(4-fluoro-phenyl)-[1,2,4]oxadiazol-5-yl]-piperidin-1-yl}-methanone]: the melting point was 123 to 124 °C.

In turn, `O=C(c1ccc2ncsc2c1)N1CCC[C@H](c2nc(-c3ccc(F)cc3)no2)C1` [Example 36, Benzothiazol-6-yl-{(S)-3-[3-(4-fluoro-phenyl)-1,2,4-oxadiazol-5-yl]-piperidin-1-yl}-methanone] returned a melting point of 63 to 64 °C.

The compound `O=C(c1csnn1)N1CCC[C@H](c2nc(-c3ccc(F)cc3)no2)C1` [Example 18, {(S)-3-[3-(4-Fluoro-phenyl)-[1,2,4]oxadiazol-5-yl]-piperidin-1-yl}-[1,2,3]thiadiazol-4-yl-methanone] yielded a melting point of 90 to 91 °C.

On to `Cc1nc(-c2cnccn2)sc1C(=O)N1CCC[C@H](c2nc(-c3ccc(F)cc3)no2)C1` [Example 14, {(S)-3-[3-(4-Fluoro-phenyl)-[1,2,4]oxadiazol-5-yl]-piperidin-1-yl}-(4-methyl-2-pyrazin-2-yl-thiazol-5-yl)-methanone], for which the melting point was 147 to 148 °C.

Regarding `O=C(c1ccc(F)cc1)N1CCC[C@H](c2nc(-c3ccncc3)no2)C1` [Example 48, (4-Fluoro-phenyl)-[(S)-3-(3-pyridin-4-yl-[1,2,4]oxadiazol-5-yl)-piperidin-1-yl]-methanone], the melting point is 113 to 115 °C.

Compound `O=C(c1ccc(F)c(F)c1)N1CCC[C@H](c2nc(-c3ccc([N+](=O)[O-])cc3)no2)C1` [Example 72, (3,4-Difluoro-phenyl)-{(S)-3-[3-(4-nitro-phenyl)-[1,2,4]oxadiazol-5-yl]-piperidin-1-yl}-methanone] registered a melting point of 138 to 140 °C.

`O=C(c1ccc(F)cc1)N1CCCC(c2nnc(-c3ccc(F)cc3)[nH]2)C1` (centres unmarked) [Example 1, (4-Fluoro-phenyl)-{3-[5-(4-fluoro-phenyl)-4H-[1,2,4]triazol-3-yl]-piperidin-1-yl}-methanone] had a melting point of 95 °C.

Compound `O=C(c1ccc(F)c(F)c1)N1CCC[C@H](c2nc(-c3ccccc3F)no2)C1` [Example 59] yielded a melting point of 115 to 119 °C.

For `O=C(c1ccc(F)cc1)N1CCCC(c2nc(-c3cccc(F)c3)no2)C1` (centres unmarked) [Example 10, (4-Fluoro-phenyl)-{3-[3-(3-fluoro-phenyl)-[1,2,4]oxadiazol-5-yl]-piperidin-1-yl}-methanone], the melting point was in the range of 86 to 89 °C.

In turn, `O=C(c1ccc(F)cc1)N1CCCC(c2nc(-c3ccccc3)no2)C1` (centres unmarked) [Example 7, (4-Fluoro-phenyl)-[3-(3-phenyl-[1,2,4]oxadiazol-5-yl)-piperidin-1-yl]-methanone] showed a melting point of 78 to 79 °C.

Take `O=C(c1cccc(F)c1)N1CCCC(c2nc(-c3ccc(F)cc3)no2)C1` (centres unmarked) [Example 6, (3-Fluoro-phenyl)-{3-[3-(4-fluoro-phenyl)-[1,2,4]oxadiazol-5-yl]-piperidin-1-yl}-methanone]: the melting point was in the range of 139 to 140 °C.

In turn, `Cc1ccsc1C(=O)N1CCC[C@H](c2nc(-c3ccc(F)cc3)no2)C1` [Example 32, {(S)-3-[3-(4-Fluoro-phenyl)-1,2,4-oxadiazol-5-yl]-piperidin-1-yl}-(3-methyl-thiophen-2-yl)-methanone] gave a melting point of 90 to 92 °C.

Compound `Cc1cc(C(=O)N2CCC[C@H](c3nc(-c4ccc(F)cc4)no3)C2)nn1C` [Example 21, (1,5-Dimethyl-1H-pyrazol-3-yl)-{(S)-3-[3-(4-fluoro-phenyl)-[1,2,4]oxadiazol-5-yl]-piperidin-1-yl}-methanone] displayed a melting point of 108 to 109 °C.

Regarding `O=C(c1nccs1)N1CCC[C@H](c2nc(-c3ccc(F)cc3)no2)C1` [Example 37, {(S)-3-[3-(4-Fluoro-phenyl)-1,2,4-oxadiazol-5-yl]-piperidin-1-yl}-thiazol-2-yl-methanone], the melting point was 94 to 95 °C.

In turn, `Cn1cccc1C(=O)N1CCC[C@H](c2nc(-c3ccc(F)cc3)no2)C1` [Example 33, {(S)-3-[3-(4-Fluoro-phenyl)-1,2,4-oxadiazol-5-yl]-piperidin-1-yl}-(1-methyl-1H-pyrrol-2-yl)-methanone] gave a melting point of 84 to 85 °C.

`O=C(c1ccc(-c2ccccn2)s1)N1CCC[C@H](c2nc(-c3ccc(F)cc3)no2)C1` [Example 31, {(S)-3-[3-(4-Fluoro-phenyl)-1,2,4-oxadiazol-5-yl]-piperidin-1-yl}-(5-pyridin-2-yl-thiophen-2-yl)-methanone] yielded a melting point of 115 to 117 °C.

`O=C(c1ccc(F)cc1)N1CCC[C@H](c2nc(-c3ccc([N+](=O)[O-])cc3)no2)C1` [Example 71, (4-Fluoro-phenyl)-{(S)-3-[3-(4-nitro-phenyl)-[1,2,4]oxadiazol-5-yl]-piperidin-1-yl}-methanone] yielded a melting point of 162 to 164 °C.

In turn, `O=C(/C=C/c1ccc(F)cc1)N1CCC[C@H](c2nc(-c3ccc(F)cc3)no2)C1` [Example 64, (E)-3-(4-Fluoro-phenyl)-1-{(S)-3-[3-(4-fluoro-phenyl)-[1,2,4]oxadiazol-5-yl]-piperidin-1-yl}-propenone] registered a melting point of 137 to 139 °C.

In turn, `O=C(c1ccc(N2CCOCC2)nc1)N1CCC[C@H](c2nc(-c3ccc(F)cc3)no2)C1` [Example 39, {(S)-3-[3-(4-Fluoro-phenyl)-1,2,4-oxadiazol-5-yl]-piperidin-1-yl}-(6-morpholin-4-yl-pyridin-3-yl)-methanone] gave a melting point of 112 to 114 °C.

`O=C(c1ccc(F)cc1)N1CCC[C@H](c2nc(-c3ccccc3)no2)C1` [Example 69, (4-Fluoro-phenyl)-[(S)-3-(3-phenyl-[1,2,4]oxadiazol-5-yl)-piperidin-1-yl]-methanone] returned a melting point of 116 to 118 °C.

In turn, `COc1ccc(-c2noc(C3CCCN(C(=O)c4ccccc4)C3)n2)cc1` (centres unmarked) [Example 3, {3-[3-(4-Methoxy-phenyl)-[1,2,4]oxadiazol-5-yl]-piperidin-1-yl}-phenyl-methanone] registered a melting point of 121 °C.

Compound `O=C(c1ccc(F)c(F)c1)N1CCC[C@H](c2nc(-c3ccccc3)no2)C1` [Example 70, (3,4-Difluoro-phenyl)-[(S)-3-(3-phenyl-[1,2,4]oxadiazol-5-yl)-piperidin-1-yl]-methanone] yielded a melting point of 149 to 151 °C.

In turn, `O=C(c1ccc2[nH]ccc2c1)N1CCC[C@H](c2nc(-c3ccc(F)cc3)no2)C1` [Example 40, {(S)-3-[3-(4-Fluoro-phenyl)-1,2,4-oxadiazol-5-yl]-piperidin-1-yl}-(1H-indol-5-yl)-methanone] displayed a melting point of 191 to 192 °C.

The compound `O=C(c1cccs1)N1CCC[C@H](c2nc(-c3ccc(F)cc3)no2)C1` [Example 13, S-(thiophen-2-yl)-{3-[3-(4-fluoro-phenyl)-[1,2,4]oxadiazol-5-yl]-piperidin-1-yl}-methanone] came in with a melting point of 82 to 83 °C.

Compound `O=C(c1ccc2[nH]cnc2c1)N1CCC[C@H](c2nc(-c3ccc(F)cc3)no2)C1` [Example 45, {(S)-3-[3-(4-Fluoro-phenyl)-1,2,4-oxadiazol-5-yl]-piperidin-1-yl}-benzoimidazol-6-yl-methanone] showed a melting point of 110 to 115 °C.

Compound `O=C(c1nc2ccccc2s1)N1CCC[C@H](c2nc(-c3ccc(F)cc3)no2)C1` [Example 19, Benzothiazol-2-yl-{(S)-3-[3-(4-fluoro-phenyl)-[1,2,4]oxadiazol-5-yl]-piperidin-1-yl}-methanone] gave a melting point of 130 to 131 °C.

Regarding `O=C(c1cc(F)c(F)c(F)c1)N1CCC[C@H](c2nc(-c3ccc(F)cc3)no2)C1` [Example 26, {(S)-3-[3-(4-Fluoro-phenyl)-[1,2,4]oxadiazol-5-yl]-piperidin-1-yl}-(3,4,5-trifluoro-phenyl)-methanone], the melting point fell in the range of 139 to 140 °C.

`O=C(c1ccc(F)cc1)N1CCOC(c2nc(-c3ccc(F)cc3)no2)C1` (centres unmarked) [Example 60, (4-Fluoro-phenyl)-{2-[3-(4-fluoro-phenyl)-[1,2,4]oxadiazol-5-yl]-morpholin-4-yl}-methanone]: the melting point is 116 to 117 °C.

Turning to `N#Cc1ccc(C(=O)N2CCC[C@H](c3nc(-c4ccc(F)cc4)no3)C2)cc1` [Example 23, 4-{(S)-3-[3-(4-Fluoro-phenyl)-[1,2,4]oxadiazol-5-yl]-piperidine-1-carbonyl}-benzonitrile], the melting point is 129 to 130 °C.

For the compound `Cc1cc(C(=O)N2CCC[C@H](c3nc(-c4ccc(F)cc4)no3)C2)ccc1F` [Example 30, (4-Fluoro-3-methyl-phenyl)-{(S)-3-[3-(4-fluoro-phenyl)-[1,2,4]oxadiazol-5-yl]-piperidin-1-yl}-methanone], the melting point lay in the range of 106 to 107 °C.

The compound `O=C(c1ccc(C(F)(F)F)cc1)N1CCC[C@H](c2nc(-c3ccc(F)cc3)no2)C1` [Example 22, {(S)-3-[3-(4-Fluoro-phenyl)-[1,2,4]oxadiazol-5-yl]-piperidin-1-yl}-(4-trifluoromethyl-phenyl)-methanone] registered a melting point of 109 to 110 °C.
